System: hairless mice (Hos: HR-1)
Conditions: mouse, in vivo
Source text: In this test example, the low-molecular-weight hyaluronic acid according to the invention was percutaneously administered to a mouse to evaluate the percutaneous absorbability of the low-molecular-weight hyaluronic acid. Six-week-old (when the test was started) male hairless mice (Hos: HR-1) (purchased from Japan SLC Inc.) […] Specifically, the hyaluronic acid was labeled with a fluorescent substance by allowing a carboxylic acid group of the hyaluronic acid to react with DMEQ-hydrazide. […] The HPLC analysis conditions were as follows. • Analyzer: Waters 2690 470 • Column: Shodex suger KS807 (gel filtration column) • Column temperature: 40° C. • Flow rate: 0.5 mL/min • Injection amount: 20 microliters • Mobile phase: 0.003 mol/L phosphoric acid buffer containing 0.15 mol/L sodium chloride • Fluorescence analysis conditions: excitation wavelength: 365 nm, fluorescence wavelength: 447 nm […] It is considered that the peak was also detected in the test group 3 due to a fluorescent substance (e.g., vitamin, aromatic amino acid, and cholesterol) originally contained in the living body. […] The STD solution was analyzed by HPLC to determine the peak area.

## low-molecular-weight hyaluronic acid [Example 2]
  amount of percutaneous absorption of hyaluronic acid (increase in hyaluronic acid per g of skin): increased with time when the sample attachment time was 1 to 3 hours, and almost reached equilibrium when the sample attachment time was 3 to 5 hours

## hyaluronic acid [Sample 2]
  fluorescence intensity (peak) in the skin compared with control group (test group 3): no significant difference

— patent US20090312282A1, “Novel Low Molecular Weight Hyaluronic Acid and/or Salt Thereof, and Cosmetic Preparation, Pharmaceutical Composition, and Food Composition Each Using Same” (Q. P. Corporation, priority 2006, published 2009)
